According to patent publication US20090137681A1, “Sirtuin Inhibiting Compounds” (priority 2005, published 2009):
Entries after “also recorded” stand apart in the source; their conditions may differ.

Key:
[1] = molecular target: T1, SIRT2 isoform 1 (Homo sapiens, UniProt Q8IXJ6); assay: SIRT2 deacetylase inhibition, HDAC fluorescent activity assay (BIOMOL AK-500); format: biochemical; conditions: for inhibition at 100 µM: read-out: SIRT2 % inhibition at 100 μM, 100 μM compound; for IC50: dose response curve; for fold more potent than 1 in inhibiting SIRT2: relative to sirtinol 1
T1 construct: His; made in house
T1 sequence (Q8IXJ6 1-389): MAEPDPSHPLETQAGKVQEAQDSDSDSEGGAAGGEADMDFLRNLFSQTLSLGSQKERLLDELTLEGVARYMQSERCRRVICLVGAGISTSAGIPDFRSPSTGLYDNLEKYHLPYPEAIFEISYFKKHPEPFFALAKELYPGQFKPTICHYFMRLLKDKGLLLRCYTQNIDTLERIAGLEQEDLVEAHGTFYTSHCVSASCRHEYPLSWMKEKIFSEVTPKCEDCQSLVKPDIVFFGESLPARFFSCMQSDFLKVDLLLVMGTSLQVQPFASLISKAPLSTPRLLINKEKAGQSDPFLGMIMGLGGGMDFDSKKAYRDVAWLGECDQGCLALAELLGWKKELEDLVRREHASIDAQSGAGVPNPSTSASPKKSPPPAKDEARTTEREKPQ
Experimental: (§1) Recombinant His-tagged yeast ySir2 and His-tagged hSIRT1 were purified and assayed for deacetylase activity using the HDAC fluorescent activity assay/drug discovery kit (AK-500, BIOMOL Research Laboratories).^55 This assay system allows detection of a fluorescent signal upon deacetylation of a histone substrate when treated with developer. Fluorescence was measured on a fluorometric reader (Wallac Victor III fluorescence plate reader Perkin Elmer) with excitation set at 360 nm and emission detection set at 450 nm. Reactions consisted of either 3 μg of ySir2 or 1 μg of SIRT1, incubated with 250 μM acetylated histone substrate, 1 mM dithiothreitol, and a range of inhibitor concentrations as described. Reactions with the yeast and human proteins were carried out at 30 and 37° C., respectively, for 60 min. Assays were performed in the presence of 200 μM NAD^+ and each of the inhibitors at 0, 20, 75, 100, 150, or 300 μM concentrations.
Recombinant His-tagged SIRT2 isoform 1 was purified and assayed for deacetylase activity using the HDAC fluorescent activity assay/drug discovery kit (AK-500, BIOMOL Research Laboratories) as described above. […] A dose response curve for determining the IC50 was also done.

[2] = molecular target: T2, yeast Sir2 (ySir2) (Saccharomyces cerevisiae, UniProt P06700); assay: Yeast Sir2 deacetylase inhibition, HDAC fluorescent activity assay (BIOMOL AK-500); format: biochemical; conditions: for inhibition at 100 µM: 100 μM inhibitor, read-out: % inhibtn (100 μM) ySir2; for inhibition at 100 µM / IC50: 200 μM NAD+, 30° C., 60 min; for ySir2 inhibitory activity, in words: compared with sirtinol 1
T2 construct: His; made in house
T2 sequence (P06700 whole entry): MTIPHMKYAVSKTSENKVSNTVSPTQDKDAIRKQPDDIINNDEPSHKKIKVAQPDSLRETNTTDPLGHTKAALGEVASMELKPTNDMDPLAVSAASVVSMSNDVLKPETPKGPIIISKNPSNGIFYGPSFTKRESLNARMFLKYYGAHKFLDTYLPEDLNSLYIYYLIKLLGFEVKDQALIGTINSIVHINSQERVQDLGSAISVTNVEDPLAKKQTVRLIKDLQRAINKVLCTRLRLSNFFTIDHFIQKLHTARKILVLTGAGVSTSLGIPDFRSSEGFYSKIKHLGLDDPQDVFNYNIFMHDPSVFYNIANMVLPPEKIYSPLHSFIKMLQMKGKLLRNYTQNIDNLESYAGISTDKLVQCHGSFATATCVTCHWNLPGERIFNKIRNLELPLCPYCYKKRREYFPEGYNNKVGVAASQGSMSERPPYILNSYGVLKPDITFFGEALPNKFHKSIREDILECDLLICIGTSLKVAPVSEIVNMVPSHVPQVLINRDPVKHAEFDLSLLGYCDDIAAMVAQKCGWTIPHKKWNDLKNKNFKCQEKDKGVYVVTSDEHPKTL
Experimental: as §1
as §1, with “In Vitro Yeast Sir2 Enzyme Inhibition. Recombinant” for “Recombinant”, “Sir2p was” for “ySir2 and His-tagged hSIRT1 were”, “Laboratories).^42” for “Laboratories).^55”, “of” for “of either”, “ySir2” for “ySir2 or 1 μg of SIRT1,”

[3] = molecular target: T3, human SIRT1 (hSIRT1) (Homo sapiens, UniProt Q96EB6); assay: Human SIRT1 deacetylase inhibition, HDAC fluorescent activity assay (BIOMOL AK-500); format: biochemical; conditions: for inhibition at 100 µM: 100 μM inhibitor, read-out: % inhibtn (100 μM) hSIRT1; for inhibition at 100 µM / IC50: 200 μM NAD+, 37° C., 60 min; for fold more potent than sirtinol (1) in inhibiting hSIRT1: relative to sirtinol 1
T3 construct: His; made in house
T3 sequence (Q96EB6 1-747): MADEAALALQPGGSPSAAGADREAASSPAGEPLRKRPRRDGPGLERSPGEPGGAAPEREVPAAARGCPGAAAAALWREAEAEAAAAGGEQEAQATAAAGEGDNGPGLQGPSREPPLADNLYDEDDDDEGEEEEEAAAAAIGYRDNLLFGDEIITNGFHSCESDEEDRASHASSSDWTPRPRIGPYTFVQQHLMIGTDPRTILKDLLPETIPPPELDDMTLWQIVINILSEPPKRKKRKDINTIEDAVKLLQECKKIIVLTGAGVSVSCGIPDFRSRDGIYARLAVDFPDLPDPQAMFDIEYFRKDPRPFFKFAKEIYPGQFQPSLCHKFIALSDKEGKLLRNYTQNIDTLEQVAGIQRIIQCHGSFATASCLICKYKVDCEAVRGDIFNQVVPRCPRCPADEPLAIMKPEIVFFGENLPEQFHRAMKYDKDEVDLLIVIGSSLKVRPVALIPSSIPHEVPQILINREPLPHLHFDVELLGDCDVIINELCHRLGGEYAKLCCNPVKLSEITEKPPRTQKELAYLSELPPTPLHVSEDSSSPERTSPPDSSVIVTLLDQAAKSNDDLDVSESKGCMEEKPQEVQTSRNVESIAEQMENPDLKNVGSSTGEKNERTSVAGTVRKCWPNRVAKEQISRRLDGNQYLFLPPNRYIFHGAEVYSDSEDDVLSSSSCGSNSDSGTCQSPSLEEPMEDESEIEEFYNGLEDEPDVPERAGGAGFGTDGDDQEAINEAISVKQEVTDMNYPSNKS
Experimental: as §1

[4] = test system: Sir2-mediated telomeric URA3 gene silencing; assay: Telomeric silencing assay (phenotypic screening, URA3 reporter, 5-FOA); format: cell-based, yeast; conditions: relative to sirtinol 1, plates with 5-FOA, densitometric scanning at 16.7 μM
Experimental: Wildtype (AYH2.45)^50 and sir2Δ (STY30)^50 strains were grown to exponential phase (0.5 OD/mL) in YPD medium and cells were spotted in 10-fold dilutions on SC medium containing 1 mg/mL 5-fluoroorotic acid (5-FOA).^51 When appropriate, cells were grown on plates containing 0.18% DMSO and the specified concentration of Sir2 inhibitor (5.6 and 16.7 μM). Cell growth was evaluated after 3-4 d at 30° C.
The yeast strain contained a URA3 reporter gene integrated into the sub-telomeric region of chromosome VII-L where it is silenced by Sir2.^50 In the presence of 5-fluoroorotic acid (5-FOA), loss of transcriptional silencing in this strain and the corresponding increase in URA3 expression is lethal (FIG. 2).^51
A semi-quantitative assay of the spots on the plates treated with 5-FOA and the Sir2 inhibitors at 16.7 μM concentration was performed by densitometric scanning of the plates.

inhibition at 100 µM [1] [%]	inhibition at 100 µM [2] [%]	inhibition at 100 µM [3] [%]	melting point [°C]	fold less potent than sirtinol (1) in inhibiting ySir2 ([2]; relative to sirtinol 1) [fold]	SMILES	ySir2 inhibitory activity, in words [2]	further results
71	65.6	44.5			CC(NC(=O)c1ccccc1/N=C/c1c(O)ccc2ccccc12)c1ccccc1 (racemic) [Compound 1, sirtinol, reference compound]		
	10	33	101 to 103		CC(NC(=O)c1ccccc1/N=C/c1cccc2ccccc12)c1ccccc1 (stereo not shown) [Compound 2, 2-[(1-naphthalenylmethylene)amino]-N-(1-phenylethyl)benzamide]		
	20	9		3	CCOC(=O)c1ccccc1/N=C/c1c(O)ccc2ccccc12 [Compound 3]		
	5	26	180 to 182		O=C(O)c1ccccc1/N=C/c1c(O)ccc2ccccc12 [Compound 4]		
	15	20	139 to 141	4	N#Cc1ccccc1/N=C/c1c(O)ccc2ccccc12 [Compound 6]		
73.5	57	60.2			C[C@H](NC(=O)c1ccccc1/N=C/c1c(O)ccc2ccccc12)c1ccccc1 [Compound 10, (S)-2-[(2-hydroxy-1-naphthalenylmethylene)amino]-N-(1-phenylethyl)benzamide]	IC50 values similar to that of sirtinol 1	

Continued, compound first:

SMILES	inhibition at 100 µM [1] [%]	inhibition at 100 µM [2] [%]	inhibition at 100 µM [3] [%]	melting point [°C]	fold less potent than sirtinol (1) in inhibiting ySir2 ([2]; relative to sirtinol 1) [fold]	ySir2 inhibitory activity, in words [2]	further results
NC(=O)c1ccccc1/N=C/c1c(O)ccc2ccccc12 [Compound 5]		0 to 5	0 to 5	238 to 240		totally inactive; also recorded: total loss of Sir2 inhibitory activity	hSIRT1 inhibitory activity, in words [3]: totally inactive
CC(NC(=O)c1cccc(/N=C/c2c(O)ccc3ccccc23)c1)c1ccccc1 (stereo not shown) [Compound 7, 3-[(2-hydroxy-1-naphthalenylmethylene)amino]-N-(1-phenylethyl)benzamide]	79.2	53.9	63		1.5	IC50 values similar to that of 1; also recorded: IC50 values similar to those of 1	IC50 [1]: 35.7 µM; fold more potent than 1 in inhibiting SIRT2 [1]: 1.6 fold; IC50 [2]: 72 ± 3 µM; IC50 [3]: 59 ± 2 µM; fold more potent than sirtinol (1) in inhibiting hSIRT1 [3]: 2.2 fold; fold more potent than sirtinol (1) in inhibiting hSIRT1 ([3]; listed as meta-sirtinol): 2 fold; Sir2 inhibitory potency in phenotypic screening, in words [4]: more potent inhibitors than 1; also recorded: more potent than sirtinol; also recorded: same potent Sir2 inhibitory as 1; Sir2 inhibitory potency in phenotypic screening, in words ([4]; listed as meta-sirtinol): more potent Sir2 inhibitory activity than sirtinol
CC(NC(=O)c1ccc(/N=C/c2c(O)ccc3ccccc23)cc1)c1ccccc1 (stereo not shown) [Compound 8, 4-[(2-hydroxy-1-naphthalenylmethylene)amino]-N-(1-phenylethyl)benzamide]	80.2	59.8	82.6			IC50 values similar to that of 1; also recorded: IC50 values similar to those of 1	SIRT2 inhibitory potency, in words ([1]; among compounds 1, 7-10): most potent; IC50 [1]: 25.9 µM; fold more potent than 1 in inhibiting SIRT2 [1]: 2.2 fold; IC50 [2]: 33 ± 1 µM; fold more potent than sirtinol (1) in inhibiting ySir2 ([2]; relative to sirtinol 1): 1.5 fold; IC50 [3]: 13 µM; fold more potent than sirtinol (1) in inhibiting hSIRT1 [3]: 10 fold; fold more potent than sirtinol (1) in inhibiting hSIRT1 ([3]; listed as para-sirtinol): 8 fold; Sir2 inhibitory potency in phenotypic screening, in words ([4]; listed as para-sirtinol): more potent Sir2 inhibitory activity than sirtinol
C[C@@H](NC(=O)c1ccccc1/N=C/c1c(O)ccc2ccccc12)c1ccccc1 [Compound 9, (R)-sirtinol]	72.2	55.5	61.8			IC50 values similar to that of sirtinol 1	
